# Source: article PMC12534982 (Journal of Experimental & Clinical Cancer Research : CR, 2025)
# What was measured:
# Type in all cases: cell-based, human
# [1] = tested on: colorectal cancer cells; assay: Cell proliferation assay (Trypan Blue exclusion)
# Procedure: Cancer cells (7.5 × 10^3) were cultured in 60-mm Petri dishes and treated with DMSO or NK-A 17E-233I (25 µM) to evaluate their proliferation at various time intervals (24 h, 48 h, 96 h, 120 h) using the Trypan Blue exclusion assay.
# [2] = tested on: colorectal cancer cells; assay: Cleaved caspase-3 by flow cytometry; settings: 25 µM, 48 h
# Procedure: Cancer cells (3 × 10^4) were cultured in 48-well plates and treated with DMSO or NK-A 17E-233I (25 µM) for 48 h. Following treatment, the cells were harvested, and the supernatant was discarded. Cell pellets were resuspended in 4% methanol-free paraformaldehyde (PFA, #28908; Thermo Fisher Scientific) while vortexing and incubated in the dark at room temperature for 15 min. One milliliter of PBS was added to all tubes, followed by centrifugation at 500 × g for 5 min. The supernatant was discarded, and the pellets were permeabilized using 90% cold methanol with incubation on ice for 10 min. Subsequently, 1 mL of 0.5% BSA (#A3059; Sigma-Aldrich) was added, and the samples were centrifuged at 500 × g for 5 min. The supernatant was discarded, and the pellets were resuspended in 0.5% BSA. The anti–caspase-3 (p17, Cleaved-Asp175) primary antibody (#9661; Cell Signaling, dilution 1:800) was used to incubate samples at room temperature for 1 h. Afterwards, 0.5% BSA was added, and the tubes were centrifuged at 500 × g for 5 min. The supernatant was discarded, and the pellets were resuspended in 0.5% BSA. The samples were then incubated with F(ab')2-Goat anti-Rabbit IgG (H + L) Cross-Adsorbed Secondary Antibody, Alexa Fluor 633 (#A-21072; Invitrogen, dilution 1:1000) in the dark at room temperature for 30 min. […]
# [3] = tested on: colorectal cancer cells; assay: Neutral comet assay; settings: 25 µM
# Procedure: The assay was conducted as described in [20]. Cancer cells (2–3 × 10^5) were cultured in 6-well plates and treated with DMSO or NK-A 17E-233I (25 µM) for 1 or 24 h. After treatment, the cells were harvested and suspended in Comet Low Melting Agarose (LMA; Trevigen). Once the LMA solidified, the glass slides (CometSlide) were placed in a cell lysis buffer at 4 °C overnight. Electrophoresis was performed using a comet assay electrophoresis system (21 V for 40 min). The slides were subsequently washed and stained with SYBR® Gold dye (Invitrogen) in the dark for 30 min. DNA migration was observed using a fluorescence microscope (AF6000, Leica) equipped with a HCX PL APO 63x (NA = 1.4) oil objective. Comet tail lengths were measured with ImageJ/FIJI, analyzing over 100 cells per each condition.
# [4] = tested on: colorectal cancer cells; assay: RT-qPCR; settings: 25 µM, 48 h
# Procedure: Cancer cells (0.8 × 10^6) were cultured in 60-mm Petri dishes and treated for 48 h with DMSO or NK-A 17E-233I (25 µM). The pellets were collected, and the total RNA was isolated using TRI Reagent Solution (#T9424; Sigma-Aldrich). The concentration and purity of RNA samples were assessed using a Nanodrop (Nanodrop ND-1000 spectrophotometer, Thermo Fisher) and stored at -80°C. Complementary DNA (cDNA) was generated using MultiScribe Reverse Transcriptase (#A25776; ThermoFisher Scientific), and the resulting cDNA was diluted and analyzed by qPCR using the StepOnePlus Real-Time PCR System (Applied Biosystems) with Power UP SYBR Green Master Mix (#A25741; ThermoFisher Scientific). β-actin was used as the endogenous control gene, and the fold change was calculated using the 2^−ΔΔCT method. Data processing was conducted using StepOnePlus Software for Windows, v2.3. All primer sequences were designed using the Primer 3 Plus software, validated by the Primer-BLAST tool, and submitted to Integrated DNA Technologies (IDT, Madrid, Spain). The primer sequences utilized in this study are listed below: […]
smiles,measurement,setting,value
COc1cc(C)c(Oc2cc(C)cc(O)c2O)c(O)c1 [NK-A 17E-233I],cell proliferation,"[1]; 25 µM, over time",reduced
same,growth inhibition in the presence of physiological uridine,"[1]; SW620, 25 µM, 24 h, 5 µM and 20 µM uridine",did not mitigate the growth inhibitory effects
same,active caspase-3 staining,[2],significantly increased
same,comet tails (DNA double-strand breaks),[3],longer comet tails
same,mRNA expression levels of POLD1 and POLD2,[4],reductions
